From US9809562B2, “NAT10 modulators for treating or preventing laminopathies, aging and cancer” (CAMBRIDGE ENTERPRISE LIMITED, priority 2014, dated 2017)
Counter-ions that a name gives are not always drawn.

System: Lamin A/C depleted (siLMNA) U2OS cells
Assay: Nuclear shape rescue (DAPI staining, nuclear circularity) in Lamin A/C depleted cells
Type: cell-based, human
Conditions: for increase in potency compared to Compound 2 (dose-dependent nuclear shape rescue): DAPI staining; for nuclear shape / nuclear circularity rescue: 16 hours, Compound 2 and 3 50 μM, MB-3 5 μM, FTI 5 μM, nocodazole 200 ng/ml, colchicine 1 μg/ml, latrunculin A 1 μM
Method: U2OS and SaOS-2 osteosarcoma cells, HeLa cervical cancer cells, A431 melanoma cells, NCI-SNU5 gastric cancer cells, MRC-5 lung fibroblast cells and Werner syndrome patient-derived SV40 fibroblast cells were grown in Dulbecco's modified Eagle medium (DMEM, Sigma-Aldrich) supplemented with 10% fetal bovine serum (BioSera), 2 mM L-glutamine, 100 U per ml penicillin, 100 μg ml^−1 streptomycin. Normal skin primary fibroblasts GM03440 and Hutchinson Gilford Progeria Syndrome (HGPS) skin primary fibroblasts AG11498 and AG06297 were purchased from Coriell Cell Repositories and used between passage number 9-12 and 20-23 respectively. Cells were grown in DMEM supplemented as above. RPE-1 retinal pigment epithelial cells were grown in DMEM and Ham F12 mix medium supplemented as above and buffered with sodium bicarbonate. HMV-II melanoma cell line, 22RV1 prostate carcinoma cells, NCI-H82 and NCI-H69 lung carcinoma cells, and NCI-N87 gastric cancer cell lines were grown in RPMI-1640 medium (Sigma-Aldrich) supplemented as above. Stably transfected U2OS cells were maintained in standard medium containing 1 mg ml^−1 G418 (Invitrogen). The siRNA duplexes were obtained from Life Sciences: Lamin A/C stealth RNAi: […] (SEQ ID NO: 1) and […] (SEQ ID NO: 2), NAT10 stealth RNAi: […] (SEQ ID NO: 3), and as control siRNA, stealth RNAi negative control duplexes were used. Plasmid DNA and siRNA transfections were carried out using Lipofectamine 2000 and Lipofectamine RNAiMax (Life Sciences) respectively, following the manufacturer's instructions. Cells were analysed 48 to 72 hours after transfection.
The following KAT and KDAC inhibitors were used in the nuclear shape rescue screen, incubating cells with the molecules for 16 hours: trichostatin A (1 μM), sodium butyrate (5 mM), tubacin (10 μM), SAHA (5 μM), curcumin (10 μM), garcinol (50 μM), anacardic acid (1 μM), MB-3 (5 μM), 4-(4-chlorophenyl)-2-(2-cyclopentylidenehydrazinyl)thiazole (Compound 2) (50 μM), 4-(4-chlorophenyl)-2-(2-cyclopentylidene-1-(prop-2-yn-1-yl)hydrazinyl)thiazole (Compound 3) (50 μM) and cyclopentylidene-[4-(4-cyanophenyl)thiazol-2-yl)hydrazine (Compound 1) (Remodelin) (10 to 50 μM). For HGPS cellular fitness assays, Remodelin was incubated at 1 μM for 1 to 10 days, renewing the medium every 3 days. For long-term senescence assay, cells were kept and passaged in medium containing 1 μM Remodelin or DMSO only for 12 population doublings. Senescence was assessed after 8 days of Remodelin treatment when cells were at Population Doubling 12, and then after several weeks of Remodelin treatment, when cells reached Population Doubling 24 using the Senescence β-Galactosidase Staining Kit #9860 from Cell Signaling. Nocodazole, colchicine and latrunculin A (Sigma-Aldrich) were used at 200 ng/ml, 1 μg/ml and 1 μM respectively. Aphidicolin (Sigma-Aldrich) was used at 5 μg/ml for 16 h. Farnesyltransferase inhibitor FTI-277 was purchased from Tocris Bioscience and used at 5 μM. ATMi (KU55933) and ATRi (ATR-45) were obtained from Tocris Bioscience and from the Ohio State University respectively and used at 10 μM and 500 nM. Pifithrin alpha (Sigma-Aldrich) was used at 10 μM.
CellProfiler software was used to quantify nuclear circularity and nuclear area from DAPI staining pictures, using the “object size shape” measurement. The AreaShape measurement allowed the calculation of the Form Factor index ([…]) corresponding to circularity (a Form Factor of 1 reflecting a perfect circle), as well as the calculation of nuclear Area.
Lamin A/C was depleted by siRNA in U2OS cells (siLMNA) to induce misshapen nuclei. Cells were then treated for 16 h with various analogues of Compound 2 and nuclear shape rescue was analysed by DAPI staining. The results are shown in FIG. 18 and FIG. 19 which display the structures of the tested molecules and their ability to rescue nuclear shape.

| SMILES | increase in potency compared to Compound 2 (dose-dependent nuclear shape rescue) | increase in potency compared to Compound 2 (dose-dependent nuclear shape rescue) (listed as Remodelin) [fold] | nuclear shape / nuclear circularity rescue |
| --- | --- | --- | --- |
| N#Cc1ccc(-c2csc(NN=C3CCCC3)n2)cc1 [Compound 1, 4-(4-Cyanophenyl)-2-(2-cyclopentylidenehydrazinyl)thiazole] | five-fold | ~5 | – |
| Clc1ccc(-c2csc(NN=C3CCCC3)n2)cc1 [Compound 2, 4-(4-Chlorophenyl)-2-(2-cyclopentylidenehydrazinyl)thiazole Hydrochloride Salt] | – | – | completely restoring nuclear shape and circularity |
| C#CCN(N=C1CCCC1)c1nc(-c2ccc(Cl)cc2)cs1 [Compound 3, 4-(4-Chlorophenyl)-2-(2-cyclopentylidene-1-(prop-2-yn-1-yl)hydrazinyl)thiazole] | – | – | equivalent cellular activity as Compound 2 |
